In US20240132484A1, “BROAD SPECTRUM ANTIVIRAL COMPOUNDS TARGETING THE SKI COMPLEX” (priority 2020, published 2024):
Where “and” joins values, the source holds several entries; their conditions need not be identical. Equal values may be shown once. Read-outs that look alike come from different tables or passages of the source.

Assays:
SARS2 = assay type: cell-based, SARS-CoV-2; conditions: for Percentage Inhibition Average 1 μM / Screening data (Relative infection to DMSO controls) Average 1 μM: SARS2, 1 μM; for Screening data (Relative infection to DMSO controls) Average 1 μM / Screening data (Relative infection to DMSO controls) Average 5 μM / Screening data (Relative infection to DMSO controls) Average 10 μM / Screening data (Relative infection to DMSO controls) Average 25 μM / Screening data (Relative infection to DMSO controls) Average 50 μM / Average (relative infection to DMSO over the 5 tested concentrations): 100=DMSO control; for Percentage Inhibition Average 5 μM / Screening data (Relative infection to DMSO controls) Average 5 μM: SARS2, 5 μM; for Percentage Inhibition Average 10 μM / Screening data (Relative infection to DMSO controls) Average 10 μM: SARS2, 10 μM; for Percentage Inhibition Average 25 μM / Screening data (Relative infection to DMSO controls) Average 25 μM: SARS2, 25 μM; for Percentage Inhibition Average 50 μM / Screening data (Relative infection to DMSO controls) Average 50 μM: SARS2, 50 μM; for Average (relative infection to DMSO over the 5 tested concentrations): SARS2, average over 1 to 50 uM; for Infection Data: Percentage Infection Relative to Appropriate DMSO Control: avg background subtraction, replicate wells; for Infection Data: Average, Mean: average of Exp 1-3 (SMW475, SMW477, SMW478), n 9
cells (nuclei count) = conditions: for Relative cell count to DMSO controls, Average 1 μM / Relative cell count to DMSO controls, Average 5 μM / Relative cell count to DMSO controls, Average 10 μM / Relative cell count to DMSO controls, Average 25 μM / Relative cell count to DMSO controls, Average 50 μM: toxicity data, 100=DMSO control; for Relative cell count to DMSO controls, Average (for correlation analysis): average value over the 5 tested concentrations (1 to 50 uM); for Toxicity Data: Average, Mean: average of Exp 1-3 (SMW475, SMW477, SMW478), n 9

CN(C)CCN(Cc1ccsc1)Cc1ccc(CO)o1 [SILCS9]
Percentage Infection Relative to DMSO Control, Average, Mean (SARS2): 95.98% and 111.45% and 120.58% and 120.66% and 113.21%
SARS2 antiviral activity (SARS2): significant loss of activity
Percentage Inhibition Average 1 μM (SARS2): −13.21%
Screening data (Relative infection to DMSO controls) Average 1 μM (SARS2): 113.21
Percentage Inhibition Average 5 μM (SARS2): −20.66%
Screening data (Relative infection to DMSO controls) Average 5 μM (SARS2): 120.66
Percentage Inhibition Average 10 μM (SARS2): −20.58%
Screening data (Relative infection to DMSO controls) Average 10 μM (SARS2): 120.58
Percentage Inhibition Average 25 μM (SARS2): −11.45%
Screening data (Relative infection to DMSO controls) Average 25 μM (SARS2): 111.45
Percentage Inhibition Average 50 μM (SARS2): 4.02%
Screening data (Relative infection to DMSO controls) Average 50 μM (SARS2): 95.98
Average (relative infection to DMSO over the 5 tested concentrations) (SARS2): 112.38
Relative cell count to DMSO controls, Average 1 μM (cells (nuclei count)): 105.37
Relative cell count to DMSO controls, Average 5 μM (cells (nuclei count)): 103.56
Relative cell count to DMSO controls, Average 10 μM (cells (nuclei count)): 111.19
Relative cell count to DMSO controls, Average 25 μM (cells (nuclei count)): 92.21
Relative cell count to DMSO controls, Average 50 μM (cells (nuclei count)): 60.67
Toxicity Data, Average, Mean (relative to DMSO control) (cells (nuclei count); Average of Exp 1-3, 1 uM): 105.37%
Toxicity Data, Average, Mean (relative to DMSO control) (cells (nuclei count); Average of Exp 1-3, 5 uM): 103.56%
Toxicity Data, Average, Mean (relative to DMSO control) (cells (nuclei count); Average of Exp 1-3, 10 uM): 111.19%
Toxicity Data, Average, Mean (relative to DMSO control) (cells (nuclei count); Average of Exp 1-3, 25 uM): 92.21%
Toxicity Data, Average, Mean (relative to DMSO control) (cells (nuclei count); Average of Exp 1-3, 50 uM): 60.67%
Relative cell count to DMSO controls, Average (for correlation analysis) (cells (nuclei count)): 94.60

Cc1cc(CN(CCN(C)C)Cc2ccco2)sc1Br [SILCS15]
Infection Data: Percentage Infection Relative to Appropriate DMSO Control (SARS2; 1 uM, Exp 1 (SMW475)): 117.62% and 124.56% and 121.12%
Infection Data: Percentage Infection Relative to Appropriate DMSO Control (SARS2; 1 uM, Exp 2 (SMW477)): 103.78% and 103.22% and 100.05%
Infection Data: Percentage Infection Relative to Appropriate DMSO Control (SARS2; 1 uM, Exp 3 (SMW478)): 107.90% and 99.19% and 97.03%
Infection Data: Average, Mean (SARS2; 1 uM): 108.27%
Infection Data: Percentage Infection Relative to Appropriate DMSO Control (SARS2; 5 uM, Exp 1 (SMW475)): 131.70% and 141.65% and 132.54%
Infection Data: Percentage Infection Relative to Appropriate DMSO Control (SARS2; 5 uM, Exp 2 (SMW477)): 102.31% and 90.53% and 98.90%
Infection Data: Percentage Infection Relative to Appropriate DMSO Control (SARS2; 5 uM, Exp 3 (SMW478)): 98.36% and 110.89% and 93.32%
Infection Data: Average, Mean (SARS2; 5 uM): 111.13%
Infection Data: Percentage Infection Relative to Appropriate DMSO Control (SARS2; 10 uM, Exp 1 (SMW475)): 79.51% and 121.98% and 93.64%
Infection Data: Percentage Infection Relative to Appropriate DMSO Control (SARS2; 10 uM, Exp 2 (SMW477)): 75.81% and 72.41% and 82.10%
Infection Data: Percentage Infection Relative to Appropriate DMSO Control (SARS2; 10 uM, Exp 3 (SMW478)): 111.15% and 106.59% and 85.32%
Infection Data: Average, Mean (SARS2; 10 uM): 92.05%
Infection Data: Percentage Infection Relative to Appropriate DMSO Control (SARS2; 25 uM, Exp 1 (SMW475)): 30.31% and 27.68% and 26.54%
Infection Data: Percentage Infection Relative to Appropriate DMSO Control (SARS2; 25 uM, Exp 2 (SMW477)): 35.02% and 27.68% and 29.29%
Infection Data: Percentage Infection Relative to Appropriate DMSO Control (SARS2; 25 uM, Exp 3 (SMW478)): 35.78% and 39.52% and 32.45%
Infection Data: Average, Mean (SARS2; 25 uM): 31.59%
Infection Data: Percentage Infection Relative to Appropriate DMSO Control (SARS2; 50 uM, Exp 1 (SMW475)): 23.93% and 15.87% and 20.00%
Infection Data: Percentage Infection Relative to Appropriate DMSO Control (SARS2; 50 uM, Exp 2 (SMW477)): 18.29% and 18.14% and 19.12%
Infection Data: Percentage Infection Relative to Appropriate DMSO Control (SARS2; 50 uM, Exp 3 (SMW478)): 20.62% and 25.98% and 33.79%
Infection Data: Average, Mean (SARS2; 50 uM): 21.75%
Percentage Inhibition Average 1 μM (SARS2): −8.27%
Screening data (Relative infection to DMSO controls) Average 1 μM (SARS2): 108.27
Percentage Inhibition Average 5 μM (SARS2): −11.13%
Screening data (Relative infection to DMSO controls) Average 5 μM (SARS2): 111.13
Percentage Inhibition Average 10 μM (SARS2): 7.95%
Screening data (Relative infection to DMSO controls) Average 10 μM (SARS2): 92.05
Percentage Inhibition Average 25 μM (SARS2): 68.41%
Screening data (Relative infection to DMSO controls) Average 25 μM (SARS2): 31.59
Percentage Inhibition Average 50 μM (SARS2): 78.25%
Screening data (Relative infection to DMSO controls) Average 50 μM (SARS2): 21.75
Average (relative infection to DMSO over the 5 tested concentrations) (SARS2): 72.96
Toxicity Data: Average, Mean (cells (nuclei count); 1 uM): 105.96%
Relative cell count to DMSO controls, Average 1 μM (cells (nuclei count)): 105.96
Toxicity Data: Average, Mean (cells (nuclei count); 5 uM): 104.00%
Relative cell count to DMSO controls, Average 5 μM (cells (nuclei count)): 104
Toxicity Data: Average, Mean (cells (nuclei count); 10 uM): 107.75%
Relative cell count to DMSO controls, Average 10 μM (cells (nuclei count)): 107.75
Toxicity Data: Average, Mean (cells (nuclei count); 25 uM): 115.74%
Relative cell count to DMSO controls, Average 25 μM (cells (nuclei count)): 115.74
Toxicity Data: Average, Mean (cells (nuclei count); 50 uM): 65.19%
Relative cell count to DMSO controls, Average 50 μM (cells (nuclei count)): 65.19
Relative cell count to DMSO controls, Average (for correlation analysis) (cells (nuclei count)): 99.73

COCC1=C(C(=O)NCC2CCC2)C(c2cccs2)NC(=O)N1 (centres unmarked) [SILCS56]
Percentage Inhibition Average 1 μM (SARS2): 31.59%
Screening data (Relative infection to DMSO controls) Average 1 μM (SARS2): 68.41
Percentage Inhibition Average 5 μM (SARS2): 44.15%
Screening data (Relative infection to DMSO controls) Average 5 μM (SARS2): 55.85
Percentage Inhibition Average 10 μM (SARS2): 29.24%
Screening data (Relative infection to DMSO controls) Average 10 μM (SARS2): 70.76
Percentage Inhibition Average 25 μM (SARS2): 2.27%
Screening data (Relative infection to DMSO controls) Average 25 μM (SARS2): 97.73
Percentage Inhibition Average 50 μM (SARS2): −21.04%
Screening data (Relative infection to DMSO controls) Average 50 μM (SARS2): 121.04
Average (relative infection to DMSO over the 5 tested concentrations) (SARS2): 82.76
Relative cell count to DMSO controls, Average 1 μM (cells (nuclei count)): 120.34
Relative cell count to DMSO controls, Average 5 μM (cells (nuclei count)): 119.22
Relative cell count to DMSO controls, Average 10 μM (cells (nuclei count)): 119.65
Relative cell count to DMSO controls, Average 25 μM (cells (nuclei count)): 104.41
Relative cell count to DMSO controls, Average 50 μM (cells (nuclei count)): 89.59
Relative cell count to DMSO controls, Average (for correlation analysis) (cells (nuclei count)): 110.64
